Reference: ChEMBL document CHEMBL5131436, “Dual Sigma-1 receptor antagonists and hydrogen sulfide-releasing compounds for pain treatment: Design, synthesis, and pharmacological evaluation” (Eur J Med Chem, 2022)
Values after ≈ are worked out from the molar mass of the structure shown. Active and inactive are the calls of the source. No cut-off for these calls is given here.

How the values were obtained:
[1] = target: Delta-type opioid receptor (Rattus norvegicus, UniProt P33533); test: Displacement of [3H]-(2-D-Ala)[Tyrosy1-3,5-]-DELTORPHIN II from Sprague-Dawley rat brain membrane delta opioid receptor incubated for 45 mins by liquid scintillation counting analysis; assay type: cell membranes
Delta-type opioid receptor, sequence (P33533 whole entry): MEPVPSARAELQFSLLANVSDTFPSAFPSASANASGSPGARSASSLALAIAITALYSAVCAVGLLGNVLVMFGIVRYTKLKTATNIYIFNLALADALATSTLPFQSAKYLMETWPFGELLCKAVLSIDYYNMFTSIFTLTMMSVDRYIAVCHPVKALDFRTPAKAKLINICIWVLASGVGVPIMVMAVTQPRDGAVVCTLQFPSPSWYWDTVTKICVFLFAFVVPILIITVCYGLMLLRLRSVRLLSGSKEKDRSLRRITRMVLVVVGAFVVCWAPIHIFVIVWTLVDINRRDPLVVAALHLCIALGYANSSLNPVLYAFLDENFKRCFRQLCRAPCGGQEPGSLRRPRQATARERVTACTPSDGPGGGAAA

[2] = target: Mu-type opioid receptor (Rattus norvegicus, UniProt P33535); test: Displacement of [3H]-DAMGO from Sprague-Dawley rat brain membrane mu opioid receptor incubated for 45 mins by liquid scintillation counting analysis; assay type: cell membranes
Mu-type opioid receptor, sequence (P33535 whole entry): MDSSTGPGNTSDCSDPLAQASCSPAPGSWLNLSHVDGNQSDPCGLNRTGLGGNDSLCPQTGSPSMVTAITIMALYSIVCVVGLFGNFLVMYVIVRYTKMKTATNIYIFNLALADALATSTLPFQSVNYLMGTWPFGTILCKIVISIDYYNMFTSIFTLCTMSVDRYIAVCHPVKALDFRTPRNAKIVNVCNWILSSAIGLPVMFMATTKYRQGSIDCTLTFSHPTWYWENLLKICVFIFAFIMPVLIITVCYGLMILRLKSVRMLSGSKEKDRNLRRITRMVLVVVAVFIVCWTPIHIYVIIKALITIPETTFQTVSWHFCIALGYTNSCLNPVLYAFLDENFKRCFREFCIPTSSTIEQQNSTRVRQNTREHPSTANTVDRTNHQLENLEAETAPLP

[3] = target: Kappa-type opioid receptor (Cavia porcellus, UniProt P41144); test: Displacement of [3H]-U69593 from Dunkin-Hartley guinea pig brain membrane kappa opioid receptor incubated for 30 mins by liquid scintillation counting analysis; assay type: cell membranes
Kappa-type opioid receptor, sequence (P41144 whole entry): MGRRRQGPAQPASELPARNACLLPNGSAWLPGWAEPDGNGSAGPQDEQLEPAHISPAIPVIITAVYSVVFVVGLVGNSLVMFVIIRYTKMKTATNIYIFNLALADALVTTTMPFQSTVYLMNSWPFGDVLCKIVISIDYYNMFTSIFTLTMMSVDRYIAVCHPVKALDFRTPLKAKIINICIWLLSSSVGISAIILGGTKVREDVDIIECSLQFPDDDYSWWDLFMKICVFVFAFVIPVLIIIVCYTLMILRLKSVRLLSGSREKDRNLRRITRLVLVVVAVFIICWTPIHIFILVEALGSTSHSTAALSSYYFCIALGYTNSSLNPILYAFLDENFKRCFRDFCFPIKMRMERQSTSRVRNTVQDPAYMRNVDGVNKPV

[4] = target: T1, Sigma intracellular receptor 2 (Rattus norvegicus, UniProt Q5U3Y7); test: biochemical
T1 sequence (Q5U3Y7 whole entry): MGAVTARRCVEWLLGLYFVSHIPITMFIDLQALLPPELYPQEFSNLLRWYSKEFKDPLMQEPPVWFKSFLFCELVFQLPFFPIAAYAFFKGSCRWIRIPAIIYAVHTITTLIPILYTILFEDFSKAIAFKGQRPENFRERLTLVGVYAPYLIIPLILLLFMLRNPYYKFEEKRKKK

[5] = Induction of H2S release in PBS buffer incubated for 1 hrs in presence of Washington State Probe-1 by spectrofluorimeter assay; assay type: functional
[6] = target: T2, Sigma non-opioid intracellular receptor 1 (Cavia porcellus, UniProt Q60492); test: biochemical
T2 sequence (Q60492 whole entry): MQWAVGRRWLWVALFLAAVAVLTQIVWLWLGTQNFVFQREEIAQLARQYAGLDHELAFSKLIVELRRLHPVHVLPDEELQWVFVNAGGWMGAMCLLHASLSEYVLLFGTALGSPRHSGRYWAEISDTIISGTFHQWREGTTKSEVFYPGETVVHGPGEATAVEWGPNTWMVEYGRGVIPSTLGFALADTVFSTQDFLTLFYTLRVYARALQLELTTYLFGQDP

[7] = target: Sigma intracellular receptor 2 (Homo sapiens, UniProt Q5BJF2); test: Displacement of [3H]-di-o-tolylguanidine from Sigma 2-receptor (unknown origin)
Sigma intracellular receptor 2 (Homo sapiens, UniProt Q5BJF2), sequence (Q5BJF2 whole entry): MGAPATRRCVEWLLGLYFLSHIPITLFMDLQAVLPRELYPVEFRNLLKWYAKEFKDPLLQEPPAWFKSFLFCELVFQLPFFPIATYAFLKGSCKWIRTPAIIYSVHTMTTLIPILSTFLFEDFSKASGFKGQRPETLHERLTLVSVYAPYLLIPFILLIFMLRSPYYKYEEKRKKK

[8] = target: Sigma non-opioid intracellular receptor 1 (Homo sapiens, UniProt Q99720); test: Displacement of [3H]-pentazocine from Sigma 1-receptor (unknown origin)
Sigma non-opioid intracellular receptor 1 (Homo sapiens, UniProt Q99720), sequence (Q99720 whole entry): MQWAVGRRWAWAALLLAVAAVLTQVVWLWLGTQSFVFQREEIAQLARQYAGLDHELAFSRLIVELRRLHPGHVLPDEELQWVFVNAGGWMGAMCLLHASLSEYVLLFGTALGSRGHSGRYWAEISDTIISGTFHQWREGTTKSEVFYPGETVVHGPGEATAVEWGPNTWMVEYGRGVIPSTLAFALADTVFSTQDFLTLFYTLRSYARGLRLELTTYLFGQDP

[9] = tested on: Mus musculus; test: Analgesic activity in wild type CD1 mouse model of capsaicin-induced mechanical hypersensitivity assessed as reduction of capsaicin-induced mechanical hypersensitivity at 40 mg/kg, sc in presence of sigma1 receptor agonist PRE-084; assay type: functional, organism-based
[10] = tested on: Mus musculus; test: Analgesic activity in wild type CD1 mouse model of capsaicin-induced mechanical hypersensitivity assessed as reduction of capsaicin-induced mechanical hypersensitivity at 10 to 40 mg/kg, sc; assay type: functional, organism-based; details: dose 10-40 mg/kg
[11] = tested on: Mus musculus; test: Antinociceptive activity in sc dosed wild type CD1 mouse model of capsaicin-induced mechanical hypersensitivity assessed as reduction in mechanical hypersensitivity; assay type: functional
[12] = target: T2, Sigma non-opioid intracellular receptor 1
[13] = Induction of motor coordination impairment in wild type CD1 mouse assessed as latency to fall at 5 mg/kg, sc in presence of sigma-1 receptor […] BD-1063 at 5 mg/kg, sc measured upto 4 hrs by rotarod test; assay type: toxicity, organism-based; details: in vivo
[14] = Induction of H2S release in PBS buffer at 100 uM in presence of Washington State Probe-1 by spectrofluorimeter assay; assay type: functional
[15] = tested on: Mus musculus; test: Antinociceptive activity in wild type CD1 mouse model of capsaicin-induced mechanical hypersensitivity assessed as reduction in mechanical hypersensitivity at 10 mg/kg, sc in presence of Sigma 1 receptor agonist PRE-084; assay type: functional, organism-based
[16] = tested on: Mus musculus; test: Analgesic activity in wild type CD1 mouse model of capsaicin-induced mechanical hypersensitivity assessed as reduction in mechanical hypersensitivity at 5 mg/kg, sc in presence of BD-1063 at 5 mg/kg and PRE-084 at 32 mg/kg; assay type: functional, organism-based
[17] = tested on: Mus musculus; test: Analgesic activity in wild type CD1 mouse model of capsaicin-induced mechanical hypersensitivity assessed as reduction in mechanical hypersensitivity at 5 mg/kg, sc in presence of sigma-1 receptor antagonist BD-1063 at 5 mg/kg; assay type: functional
[18] = Aqueous solubility of compound at 5 mg measured for 24 hrs by UHPLC-PDA analysis; assay type: physicochemical; details: water
[19] = Induction of hypotension in wild type CD1 mouse assessed as mean arterial blood pressure at 30 to 40 mg/kg, sc incubated upto 45 mins by tail-cuff plethysmography; assay type: toxicity, organism-based; details: in vivo, 0.75 h, dose 30-40 mg/kg
[20] = Stability of compound in phosphate buffer at pH 7.4 assessed as half life by UHPLC-PDA analysis; assay type: physicochemical
[21] = Stability of compound in saline solution assessed as half life by UHPLC-PDA analysis; assay type: physicochemical
[22] = Induction of motor coordination impairment in wild type CD1 mouse assessed as latency to fall at 40 mg/kg, sc measured upto 4 hrs by rotarod test; assay type: toxicity, organism-based; details: in vivo
[23] = target: hERG (KCNH2) (Homo sapiens, UniProt Q12809); test: Inhibition of human ERG potassium channel expressed in CHO-K1 cells at 10 uM by Qube-automated patch clamp assay relative to control; assay type: toxicity, cell-based; details: CHO-K1 cells expressing human ERG potassium channel
hERG (KCNH2), sequence (Q12809 whole entry): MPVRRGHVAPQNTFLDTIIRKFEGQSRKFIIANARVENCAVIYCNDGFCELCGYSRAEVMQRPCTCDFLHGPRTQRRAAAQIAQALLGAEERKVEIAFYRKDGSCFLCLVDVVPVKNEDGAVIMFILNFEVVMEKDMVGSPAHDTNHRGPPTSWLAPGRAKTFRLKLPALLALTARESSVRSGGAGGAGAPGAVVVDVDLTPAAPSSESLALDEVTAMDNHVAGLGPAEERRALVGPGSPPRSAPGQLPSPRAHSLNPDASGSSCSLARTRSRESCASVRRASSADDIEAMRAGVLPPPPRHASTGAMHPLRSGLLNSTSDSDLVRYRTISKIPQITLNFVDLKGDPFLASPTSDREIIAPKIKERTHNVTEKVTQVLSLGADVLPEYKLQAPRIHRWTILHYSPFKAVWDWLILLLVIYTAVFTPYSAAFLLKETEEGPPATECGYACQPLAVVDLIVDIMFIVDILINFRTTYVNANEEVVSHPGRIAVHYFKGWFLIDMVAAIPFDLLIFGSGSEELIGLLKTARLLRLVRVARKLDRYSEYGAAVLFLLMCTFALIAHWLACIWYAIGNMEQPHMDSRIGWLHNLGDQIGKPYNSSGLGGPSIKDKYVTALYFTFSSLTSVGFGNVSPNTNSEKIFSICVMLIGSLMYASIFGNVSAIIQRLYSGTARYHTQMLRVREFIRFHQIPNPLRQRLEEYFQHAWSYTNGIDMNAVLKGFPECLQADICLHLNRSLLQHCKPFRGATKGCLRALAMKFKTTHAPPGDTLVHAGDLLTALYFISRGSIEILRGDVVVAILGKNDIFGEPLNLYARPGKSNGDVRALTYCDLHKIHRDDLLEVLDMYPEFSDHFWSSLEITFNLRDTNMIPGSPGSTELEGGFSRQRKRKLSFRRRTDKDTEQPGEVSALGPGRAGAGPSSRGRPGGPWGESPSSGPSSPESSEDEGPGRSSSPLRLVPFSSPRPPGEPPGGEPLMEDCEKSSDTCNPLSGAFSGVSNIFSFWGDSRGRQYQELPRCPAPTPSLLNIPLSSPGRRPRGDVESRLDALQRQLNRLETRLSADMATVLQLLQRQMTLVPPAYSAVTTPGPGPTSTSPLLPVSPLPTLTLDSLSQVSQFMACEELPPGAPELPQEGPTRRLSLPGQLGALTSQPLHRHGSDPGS

[24] = target: Voltage-gated inwardly rectifying potassium channel KCNH2 (Homo sapiens, UniProt Q12809); test: Inhibition of human ERG potassium channel expressed in CHO-K1 cells by Qube-automated patch clamp assay; assay type: toxicity, cell-based
Voltage-gated inwardly rectifying potassium channel KCNH2, sequence (Q12809 whole entry): as above

Structure (SMILES)	Ki [1]	Ki [2]	Ki [3]	Ki [4]	Activity [5]	Ki [6]	other results
NC(=S)c1ccc(C(=O)OCCCCN2CCC(O)(c3ccc(Cl)cc3)CC2)cc1	> 10000 nM	> 10000 nM	> 10000 nM	266 nM	41.8 µM	58 nM	
O=C(NC1CCN(Cc2ccccc2)CC1)c1ccc(F)cc1						6 nM	Ki [7]: 190 nM; Ki [8]: 6 nM
NC(=S)c1ccc(C(=O)OC(CCCN2CCC(O)(c3ccc(Cl)cc3)CC2)c2ccc(F)cc2)cc1 (stereo not drawn)	> 10000 nM	1460 nM	> 10000 nM	311 nM	51.7 µM	156 nM	
NC(=O)c1ccc(C(=O)NC2CCN(Cc3ccccc3)CC2)cc1	> 10000 nM	> 10000 nM	> 10000 nM				
NC(=O)c1ccc(C(=O)OCCCCN2CCC(O)(c3ccc(Cl)cc3)CC2)cc1	> 10000 nM	> 10000 nM	> 10000 nM	933 nM		126 nM	
NC(=O)c1ccc(C(=O)O)cc1	> 10000 nM	> 10000 nM	> 10000 nM	> 10000 nM		> 10000 nM	
NC(=S)c1ccc(C(=O)N2CCN(Cc3ccccc3)CC2)cc1	> 10000 nM	> 10000 nM	> 10000 nM	> 10000 nM	46.7 µM	668 nM	Activity [9]: Active; Activity ([10]; DDE = dose-dependent effect): Dde
Oc1ccc2c3c1O[C@H]1c4[nH]c5ccccc5c4C[C@@]4(O)[C@@H](C2)N(CC2CC2)CC[C@]314 [NALTRINDOLE]	2.53 nM						
CN1CCN(CCc2ccc(Cl)c(Cl)c2)CC1							ED50 [11]: 10.3 mg/kg; Ki [12]: 14 nM
C[C@@H]1CCO[C@H]2Cn3cc(C(=O)NCc4ccc(F)cc4F)c(=O)c(O)c3C(=O)N12 [DOLUTEGRAVIR]				18 nM		124 nM	
NC(=O)c1ccc(C(=O)OC(CCCN2CCC(O)(c3ccc(Cl)cc3)CC2)c2ccc(F)cc2)cc1 (stereo not drawn)	> 10000 nM	817 nM	> 10000 nM	618 nM		173 nM	
NC(=S)c1ccc(C(=O)O)cc1	> 10000 nM	> 10000 nM	> 10000 nM		34.4 µM		Activity [13]: Non-Toxic; ED50 [11]: 6.12 mg/kg; Activity [14]: Active; Activity [15]: Active; Activity [16]: Active; ED50 [17]: 7.52 mg/kg; ED75 [17]: 9.75 mg/kg; ED90 [17]: 12.6 mg/kg
NC(=S)c1ccc(C(=O)NC2CCN(Cc3ccccc3)CC2)cc1	> 10000 nM	> 10000 nM	> 10000 nM		38.4 µM		solubility at 24 h [18]: 1.25 µM (≈ 0.442 µg/mL); Activity [9]: Active; Activity [19]: Non-Toxic; half-life [20]: 1.55 h; half-life [21]: 4.17 h; Activity [22]: Non-Toxic; inhibition at 10 µM [23]: 60%; Activity [10]: Active; IC50 [24]: 6800 nM
NC(=O)c1ccc(C(=O)N2CCN(Cc3ccccc3)CC2)cc1	> 10000 nM	2550 nM	> 10000 nM	> 10000 nM		> 5000 nM	Activity [9]: Active; Activity [10]: Active
